One experiment relates to IL-8 secretion. Put plainly: Bradykinin B1 receptor agonist-induced secretion of IL-8 in human IMR-90 cells. The class given is cell-based. To be noted: 0.1 μM Lys-[Des-Arg9]Bradykinin and 0.1 μM Sar-[D-Phe8]-des-Arg9-Bradykinin, 5 hours. From the text: (§1) Inhibitory Activity on Bradykinin B1 Receptor Agonist-Induced Secretion of IL-6 and IL-8 in Human IMR-90 Cells
(§2) The effect of the compound examples on secretion of the cytokine IL-6 and IL-8 was investigated in the human foetal lung fibroblast IMR-90 cell line. Here the induction of the cytokine secretion was induced by the Bradykinin B1 receptor agonists Lys-[Des-Arg9]Bradykinin (CAS 71800-36-7, Tocris Bioscience) and Sar-[D-Phe8]-des-Arg9-Bradykinin (CAS 126959-88-4, Tocris Bioscience) leading to the activation of the Bradykinin B1-driven signalling pathway. […]
(§3) IMR-90 cells were cultured in Eagle's Minimum Essential Medium (EMEM) containing 2 mM L-glutamine, 1 g/L glucose, 1.5 g/L NaHCO3, 1 mM sodium pyruvate and non-essential amino acids (ATCC, 30-2003™) supplemented with 10% FBS (Biochrom, 50615) and 50 U/mL Penicillin, 50 μg/mL Streptomycin (PAA, P11-010). […] The compound examples were serially diluted in 100% DMSO and evaluated at 8 different concentrations within the range of 3 nM and 10 μM and a final DMSO concentration of 0.4%. […] The amount of IL-6 and IL-8 in the supernatant was determined using the Human ProInflammatory Panel II (4-Plex) (MSD, K15025B) according to manufacturer's instruction. […] The cell viability was measured using the CellTiter-Glo Luminescent Assay (Promega, G7571) following the manufacturers protocol. […]

In another experiment the test system is IL-6 secretion. As to the kind of experiment: Bradykinin B1 receptor agonist-induced secretion of IL-6 in human IMR-90 cells. The class given is cell-based. To be noted: 0.1 μM Lys-[Des-Arg9]Bradykinin and 0.1 μM Sar-[D-Phe8]-des-Arg9-Bradykinin, 5 hours.
Text: as §1, §2, §3

On to `O=C(O)c1cc(NC(=O)C2CC2c2ccc(Cl)cc2)cc(F)c1-c1cnn(C2CCC2)c1` (racemic) [Example 2, 5-({[2-(4-chlorophenyl)cyclopropyl]carbonyl}amino)-2-(1-cyclobutyl-1H-pyrazol-4-yl)-3-fluorobenzoic acid], for which the 50% inhibitory concentration (IC50) in the experiment with IL-8 secretion turned out to be 185 nM; in the experiment with IL-6 secretion, 322 nM.

The record behind these values is patent US20190177279A1, “CARBOXYLIC ACID AROMATIC 1,2-CYCLOPROPYLAMIDES” (Bayer Pharma Aktiengesellschaft, priority 2017, published 2019).
